In patent US9434745B2, “7-oxo-thiazolopyridine carbonic acid derivatives and their use in the treatment, amelioration or prevention of a viral disease” (Savira Pharmaceuticals GmbH, priority 2012, dated 2016):

Legend:
[1] = target: T1, influenza A virus (IAV) PA-Nter fragment (amino acids 1-209) (Influenza A virus, UniProt P31343); assay: FRET endonuclease activity assay; assay type: biochemical; conditions: for IC50: from initial reaction velocities (v0) of RNA substrate cleavage
T1 construct: PA-Nter fragment (amino acids 1-209); made in house

[2] = test system: MDCK cells; assay: Cytotoxicity in uninfected treated cells (CellTiter-Glo) within the CPE assay; assay type: cell-based, canine; conditions: at 50 μM
Protocol: After removal of the culture medium and one washing step with PBS, virus and compound were added together to the cells. In the wells used for cytotoxicity determination (i.e. in the absence of viral infection), no virus suspension was added. Instead, infection medium was added. Each treatment was conducted in two replicates. After incubation at 37° C., 5% CO2 for 48 hrs, each well was observed microscopically for apparent cytotoxicity, precipitate formation, or other notable abnormalities. Then, cell viability was determined using CellTiter-Glo luminescent cell viability assay (Promega). The supernatant was removed carefully and 65 μl of the reconstituted reagent were added to each well and incubated with gentle shaking for 15 min at room temperature. Then, 60 μl of the solution was transferred to an opaque plate and luminescence (RLU) was measured using Synergy HT plate reader (Biotek).
Relative cell viability values of uninfected-treated versus uninfected-untreated cells were used to evaluate cytotoxicity of the compounds. Substances with a relative viability below 80% at the tested concentration were regarded as cytotoxic and retested at lower concentrations.

[3] = test system: influenza A virus (IAV) A/Aichi/2/68 (H3N2); assay: Cytopathic effect (CPE) assay; assay type: cell-based; conditions: MDCK cells, 48 hrs; for inhibition at 50 µM: read-out: CPE % reduction

Row | Compound | melting point [°C] | inhibition at 50 µM [3] [%] | further results
1 | O=C(O)c1cn(CCc2ccc(Cl)cc2)c2cc(C3CC3)nn2c1=O | 220 to 225 |  | 
2 | O=C(O)Cc1c[nH]c2cc(C(F)(F)F)nn2c1=O | 320 to 324 |  | 
3 | O=C(NCCc1ccc(Cl)cc1)c1cc2[nH]cc(C(=O)O)c(=O)n2n1 | > 300 |  | 
4 | CCOC(=O)c1c[nH]c2nc(NCc3ccccc3)nn2c1=O | 275 to 278 |  | 
5 | CCOC(=O)c1c[nH]c2nc(Nc3ccc(C)c(Cl)c3)nn2c1=O | > 340 |  | 
6 | CCOC(=O)Cc1c[nH]c2nc(Nc3ccc(OC(C)C)cc3)nn2c1=O | 235 to 240 |  | 
7 | CCOC(=O)c1cn(Cc2ccccc2)c2cc(C3CC3)nn2c1=O | 160 to 165 |  | 
8 | CCOC(=O)c1cn(CCc2ccc(Cl)cc2)c2cc(C3CC3)nn2c1=O | 190 to 195 |  | 
9 | CCOC(=O)c1cn(CCc2ccc(OC)cc2)c2cc(C3CC3)nn2c1=O | 160 to 165 |  | 
10 | CCOC(=O)c1cn(CCCc2ccccc2)c2cc(C3CC3)nn2c1=O | 150 to 155 |  | 
11 | CCOC(=O)c1cn(Cc2ccccc2)c2cc(C3CCCC3)nn2c1=O | 148 to 150 |  | 
12 | CCOC(=O)c1cn(CCc2ccccc2)c2cc(C3CCCC3)nn2c1=O | 162 to 164 |  | 
13 | CCOC(=O)Cc1c[nH]c2cc(-c3ccccc3)nn2c1=O | 245 to 250 |  | 
14 | CCOC(=O)Cc1cn(C)c2cc(C3CC3)nn2c1=O | 147 to 150 |  | 
15 | CCOC(=O)c1c[nH]c2cc(C(=O)NC3CCN(Cc4ccccc4)CC3)nn2c1=O | 264 to 266 |  | 
16 | CSC1=NC2C(=O)C(C(=O)O)=CN(Cc3ccccc3-c3ccccc3)C2S1 (stereo not shown) |  |  | IC50 [1]: 12 µM; Cytotoxicity (relative viability below 80% regarded as cytotoxic) [2]: Toxic
17 | O=C(O)c1cn(Cc2ccccc2-c2ccccc2)c2nc(NC3CCCC3)sc2c1=O |  | 70 | 
18 | O=C(O)c1cn(Cc2ccccc2-c2ccccc2)c2nc(NCc3ccccc3)sc2c1=O |  | 68 | 
19 | O=C(O)c1cn(Cc2ccccc2-c2ccccc2)c2sc(NC3CCCC3)nc2c1=O |  |  | IC50 [1]: 5.5 µM; Cytotoxicity (relative viability below 80% regarded as cytotoxic) [2]: toxic
20 | O=C(O)c1cn(Cc2ccccc2-c2ccccc2)c2sc(N3CCCCC3)nc2c1=O |  | 83 | 
21 | CNC(=O)c1cn(Cc2ccccc2-c2ccccc2)c2sc(NCc3ccccc3)nc2c1=O |  | 41 | 
22 | N#Cc1ccc(S(=O)(=O)Nc2nc3c(=O)c(C(=O)O)cn(Cc4ccccc4-c4ccccc4)c3s2)cc1 |  |  | IC50 [1]: 2.2 µM; IC50 [3]: 18 µM
23 | O=C(O)c1cn(Cc2ccccc2-c2ccc(Cl)cc2)c2sc(O)nc2c1=O |  | 63 | 
24 | COc1ccc(S(=O)(=O)Nc2nc3c(=O)c(C(=O)O)cn(Cc4ccc(Cl)cc4-c4ccccc4)c3s2)cc1 |  | 67 | 
25 | CCOC(=O)c1cn(Cc2ccccc2-c2ccccc2)c2sc(SC)nc2c1=O |  | 35 | FRET (result in words) [1]: inactive
26 | Cc1[nH]c2ncnn2c(=O)c1CC(=O)O |  | 28 | 
27 | Nc1cc2n(C(=O)C3(c4ccccc4)CCCC3)cc(C(=O)O)c(=O)n2n1 [drawing 237] |  | 18 | 
